Experimental data: patent US20060258578A1, “Pharmaceutical composition” (The University of Zurich, priority 2005, published 2006)
“Also recorded” adds a separate entry of the source.

How the values were obtained:
MC3T3-E1 cells [1] = experiment: maturation of preosteoblastic cells determined by alkaline phosphatase activity; assay type: cell-based; conditions: for effect on maturation of MC3T3-E1 cells (alkaline phosphatase activity), solvent comparison: increasing amounts of solvent, triacetin 0,1 to 6 mM (FIG. 3)
Procedure: (§1) MC3T3-E1 cells were grown in an alpha-modified Minimum Essential Medium (Life Technologies, Inc., Grand Island, N.Y.) containing 10% fetal calf serum (Life Technologies, Inc.), 50 μg/ml gentamycin, and 50 μg/ml ascorbic acid. C3H10T1/2 cells were grown in basal medium Eagle, and 50 μg/ml gentamycin. To examine the action of triacetin on both cell lines, 1×10^5 cells per well were plated in 6-well plates and triacetin subsequently added. Medium exchange was performed after 3 days and alkaline phosphatase (ALP) was determined according to Lowry, O. et al. [J. Biol. Chem. 207 (1954) 19-37]: p-nitrophenol liberated was converted to p-nitrophenylate by adding 400 μl of 1 M NaOH, which was quantitated by measuring the absorbance at 410 nm (epsilon=17500/mol×cm). Alkaline phosphatase activity was normalized to total protein and expressed as nmol nitrophenylate generated per min per mg protein.
(§2) First, to verify the osteoinductive activity of triacetin an embryonic, murine, mesenchymal stem cell line C3H10T1/2 and a preosteoblastic cell line MC3T3-E1 were used and cultured as described above. C3H10T1/2 cells can differentiate into cartilage, bone or adipose cells, whereas MC3T3-E1 produces and releases autologous BMP. Alkaline phosphatase activity was used as a marker for the differentiation into the osteoblastic lineage.
Additionally, the effect of various plasticizers/solvents regarding their osteogenetic effect was compared to that of triacetin. MC3T3-E1 cells were grown as described above and treated with increasing amounts of different solvents and the effect on the maturation of MC3T3-E1 cells determined after 6 days by alkaline phosphatase activity.
To determine the effect of external BMP, C3H10T1/2 cells and MC3T3-E1 cells were plated at day one in 4 ml medium and ALP determination performed on day 6. On day 1 rhBMP was added to the cells from a stock solution of 2 mg/ml rhBMP-2 in 1 mM HCl to a concentration of 1 μg/ml. triacetin to a final concentration of 2 and 4 mM was added to the cells at the same time point from a stock solution of 200 mM triacetin in respective medium. After application triacetin and rhBMP was mixed by gently swirling the entire 6 well plate. In a separate experiment, the cells were treated with triacetin only.
In a similar manner, the effect of external rhBMP-4 on the maturation of MC3T3-E1 cells was determined by alkaline phosphatase activity. MC3T3-E1 cells were treated with triacetin in the presence or absence of 60 ng rhBMP-4/ml of the medium.
MC3T3-E1 cells were treated with triacetin in the presence or absence of 60 ng rhBMP-7/ml of the medium.

MC3T3-E1 cells [2] = experiment: mineralization visualized by Alizarin red-S staining; assay type: cell-based; conditions: MC3T3-E1, 4 weeks, 5 mM glycerol phosphate, 2.0 and 4.0 mM triacetin
Procedure: FIG. 2A: MC3T3-E1 cells treated with increasing amounts of triacetin and the maturation determined after 6 days by alkaline phosphatase activity. FIG. 2B: Mineralization by MC3T3-E1 cells seeded on a 6-well plate visualized by Alizarin S-staining. The MC3T3-E1 cells were cultured for 4 weeks in the presence of 5 mM glycerol phosphate. From the left: no triacetin was added, 2.0 mM triacetin was added, 4.0 mM triacetin.
Mineralization was determined in MC3T3-E1 cells grown in the same medium supplemented with 5 mM glycerol phosphate and 1 μg/ml rhBMP-2 or 60 ng/ml of rhBMP-4 of rhBMP-7. Alizarin red-S staining was performed after 4 weeks according to Bodine, P. V. N., et al. [J. Bone Mineral Res. 11 (1996) 806-819].

C3H10T1/2 cells = experiment: differentiation of mesenchymal stem cells towards osteoblastic lineage determined by alkaline phosphatase activity; assay type: cell-based, murine
Procedure: as §1
as §2, with “Alkaline phosphatase activity was used as a marker for the differentiation into the osteoblastic lineage.” left out
The differentiation of the mesenchymal cell like cell line (C3H10T1/2) towards an osteoblastic lineage was determined by alkaline phosphatase activity. […]

**Q.** `CN(C)C=O` [N,N-dimethylformamide, reference compound] was tested. Which “effect on maturation of MC3T3-E1 cells (alkaline phosphatase activity), solvent comparison” value (shortened to “effect on maturation of MC3T3-E1 cells”) (MC3T3-E1 cells [1]; after 6 days) did it give?
**A.** no positive effect

**Q.** How did the “effect on maturation of MC3T3-E1 cells” value (MC3T3-E1 cells [1]; after 6 days) turn out when `C[S+](C)[O-]` [dimethylsulfoxide, reference compound] was run?
**A.** no positive effect

**Q.** How did the “effect on maturation of MC3T3-E1 cells” value (MC3T3-E1 cells [1]; after 6 days) turn out when `CCO` [ethanol, reference compound] was run?
**A.** no positive effect

**Q.** For `CO` [methanol, reference compound], which “effect on maturation of MC3T3-E1 cells” value (MC3T3-E1 cells [1]; after 6 days) is on record?
**A.** no positive effect

**Q.** For `CC(=O)OCC(COC(C)=O)OC(C)=O` [triacetin, glyceryl triacetate], which “mineralisation by alizarin-S-staining” value (MC3T3-E1 cells [2]) is on record?
**A.** increased mineralisation

**Q.** And the “increase of alkaline phosphatase activity” value (MC3T3-E1 cells [1]; MC3T3-E1, 0,0 to 4 mM triacetin, after 6 days)?
**A.** 2.0-7.0 factor

**Q.** What about the “synergistic effect with rhBMP4 on maturation (alkaline phosphatase activity)” value (MC3T3-E1 cells [1]; MC3T3-E1, triacetin with 60 ng rhBMP4/ml (FIG. 5)) of the same compound?
**A.** synergistic effect

**Q.** What about the “synergistic effect with rhBMP-7 on maturation (alkaline phosphatase activity)” value (MC3T3-E1 cells [1]; MC3T3-E1, triacetin with 60 ng rhBMP-7/ml (FIG. 6)) of the same compound?
**A.** synergistic bone forming effect

**Q.** And the “synergistic effect with rhBMP-2 on maturation (alkaline phosphatase activity)” value (MC3T3-E1 cells [1]; MC3T3-E1, triacetin with 1 μg rhBMP-2/ml (FIG. 4))?
**A.** synergistic effect

**Q.** What about the “effect on maturation of MC3T3-E1 cells” value (MC3T3-E1 cells [1]; after 6 days) of the same compound?
**A.** increases in a concentration dependent manner

**Q.** What about the “alkaline phosphatase activity, triacetin alone” value (C3H10T1/2 cells; C3H10T1/2, 2 mM and 4 mM, absence of rhBMP) of the same compound?
**A.** increase in alkaline phosphatase activity; also recorded: able to induce alkaline phosphatase activity

**Q.** And the “synergistic effect with rhBMP-2 on alkaline phosphatase activity” value (C3H10T1/2 cells; C3H10T1/2, triacetin 2 and 4 mM with 1 μg rhBMP-2/ml, day 6)?
**A.** further enhanced; also recorded: works synergistically
